According to ChEMBL document CHEMBL1137005 (Bioorg Med Chem Lett, 2009):
pIC50: −log10 of the molar value.

Columns and labels:
[1] = Binding affinity to […] channel diltiazem binding site
[2] = biological target: Sodium channel protein type 5 subunit alpha (Homo sapiens, UniProt Q14524); assay: Inhibition of Voltage-gated sodium channel subunit alpha Nav1.5
Cytochrome P450 3A4 = Cytochrome P450 3A4 (Homo sapiens, UniProt P08684); assay: Inhibition of CYP3A4; format: ADME
[3] = biological target: T1, Bifunctional epoxide hydrolase 2 (Homo sapiens, UniProt P34913); assay: Inhibition of human soluble epoxide hydrolase
T1 sequence (P34913 whole entry): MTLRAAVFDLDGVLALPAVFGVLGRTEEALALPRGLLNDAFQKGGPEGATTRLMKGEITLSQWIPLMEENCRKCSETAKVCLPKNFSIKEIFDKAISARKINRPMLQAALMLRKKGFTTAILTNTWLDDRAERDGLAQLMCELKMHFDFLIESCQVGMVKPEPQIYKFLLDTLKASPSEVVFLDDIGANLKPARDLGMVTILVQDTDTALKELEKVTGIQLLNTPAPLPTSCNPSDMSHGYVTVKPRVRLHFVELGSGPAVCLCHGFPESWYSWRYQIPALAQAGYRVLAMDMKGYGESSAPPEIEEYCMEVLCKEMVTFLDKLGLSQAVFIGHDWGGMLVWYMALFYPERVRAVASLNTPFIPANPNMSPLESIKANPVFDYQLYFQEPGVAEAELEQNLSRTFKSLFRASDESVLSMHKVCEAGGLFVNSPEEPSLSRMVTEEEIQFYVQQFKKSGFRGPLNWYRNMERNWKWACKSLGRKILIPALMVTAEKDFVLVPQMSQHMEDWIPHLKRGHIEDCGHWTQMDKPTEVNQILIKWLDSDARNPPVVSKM

Epoxide hydrolase 1 = biological target: T2, Epoxide hydrolase 1 (Homo sapiens, UniProt P07099); assay: Inhibition of human microsomal epoxide hydrolase
T2 sequence (P07099 whole entry): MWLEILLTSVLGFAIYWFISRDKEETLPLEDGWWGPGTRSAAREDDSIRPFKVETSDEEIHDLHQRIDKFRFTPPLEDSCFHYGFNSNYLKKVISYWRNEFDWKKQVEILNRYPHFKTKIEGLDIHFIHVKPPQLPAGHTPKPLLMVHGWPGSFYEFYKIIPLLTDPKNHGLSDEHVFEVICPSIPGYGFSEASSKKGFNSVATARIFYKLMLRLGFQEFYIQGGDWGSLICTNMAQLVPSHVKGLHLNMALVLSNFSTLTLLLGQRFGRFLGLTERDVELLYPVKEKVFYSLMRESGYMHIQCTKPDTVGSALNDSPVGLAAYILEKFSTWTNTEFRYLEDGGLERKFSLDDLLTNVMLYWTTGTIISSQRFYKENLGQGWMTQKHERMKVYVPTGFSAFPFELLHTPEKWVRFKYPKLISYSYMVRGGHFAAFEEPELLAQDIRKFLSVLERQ

[4] = biological target: T3, Bifunctional epoxide hydrolase 2 (Rattus norvegicus, UniProt P80299); assay: Inhibition of rat soluble epoxide hydrolase
T3 sequence (P80299 whole entry): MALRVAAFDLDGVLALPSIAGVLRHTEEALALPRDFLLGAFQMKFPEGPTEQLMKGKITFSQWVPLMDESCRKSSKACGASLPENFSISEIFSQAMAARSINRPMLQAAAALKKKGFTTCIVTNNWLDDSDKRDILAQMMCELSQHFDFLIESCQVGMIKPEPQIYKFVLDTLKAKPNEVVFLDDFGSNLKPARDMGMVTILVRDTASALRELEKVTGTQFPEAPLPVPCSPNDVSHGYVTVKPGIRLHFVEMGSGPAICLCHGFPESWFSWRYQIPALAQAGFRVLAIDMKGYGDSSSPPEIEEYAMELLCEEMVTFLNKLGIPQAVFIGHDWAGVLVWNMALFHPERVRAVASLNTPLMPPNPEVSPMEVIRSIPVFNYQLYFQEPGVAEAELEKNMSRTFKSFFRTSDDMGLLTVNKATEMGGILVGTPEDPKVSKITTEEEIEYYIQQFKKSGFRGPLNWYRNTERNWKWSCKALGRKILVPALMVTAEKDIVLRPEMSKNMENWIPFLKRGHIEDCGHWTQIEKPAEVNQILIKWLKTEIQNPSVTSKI

Cytochrome P450 2D6 = Cytochrome P450 2D6 (Homo sapiens, UniProt P10635); assay: Inhibition of CYP2D6; format: ADME
Chain of Cytochrome P450 2D6 (P10635 whole entry): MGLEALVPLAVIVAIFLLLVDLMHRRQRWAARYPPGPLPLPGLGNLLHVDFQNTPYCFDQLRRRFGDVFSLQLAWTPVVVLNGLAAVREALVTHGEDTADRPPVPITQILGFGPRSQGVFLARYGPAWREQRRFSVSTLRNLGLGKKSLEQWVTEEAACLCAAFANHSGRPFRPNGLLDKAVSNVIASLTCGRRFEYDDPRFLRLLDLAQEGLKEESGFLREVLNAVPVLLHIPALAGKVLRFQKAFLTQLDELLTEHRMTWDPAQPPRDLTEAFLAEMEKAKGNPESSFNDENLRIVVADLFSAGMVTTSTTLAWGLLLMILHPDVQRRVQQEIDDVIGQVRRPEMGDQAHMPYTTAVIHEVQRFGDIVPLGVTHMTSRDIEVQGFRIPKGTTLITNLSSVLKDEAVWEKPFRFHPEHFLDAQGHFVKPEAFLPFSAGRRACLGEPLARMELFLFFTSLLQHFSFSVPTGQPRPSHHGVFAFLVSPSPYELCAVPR

[5] = Inhibition of potassium channel IKr
Cytochrome P450 2C9 = Cytochrome P450 2C9 (Homo sapiens, UniProt P11712); assay: Inhibition of CYP2C9; format: ADME
Chain of Cytochrome P450 2C9 (P11712 whole entry): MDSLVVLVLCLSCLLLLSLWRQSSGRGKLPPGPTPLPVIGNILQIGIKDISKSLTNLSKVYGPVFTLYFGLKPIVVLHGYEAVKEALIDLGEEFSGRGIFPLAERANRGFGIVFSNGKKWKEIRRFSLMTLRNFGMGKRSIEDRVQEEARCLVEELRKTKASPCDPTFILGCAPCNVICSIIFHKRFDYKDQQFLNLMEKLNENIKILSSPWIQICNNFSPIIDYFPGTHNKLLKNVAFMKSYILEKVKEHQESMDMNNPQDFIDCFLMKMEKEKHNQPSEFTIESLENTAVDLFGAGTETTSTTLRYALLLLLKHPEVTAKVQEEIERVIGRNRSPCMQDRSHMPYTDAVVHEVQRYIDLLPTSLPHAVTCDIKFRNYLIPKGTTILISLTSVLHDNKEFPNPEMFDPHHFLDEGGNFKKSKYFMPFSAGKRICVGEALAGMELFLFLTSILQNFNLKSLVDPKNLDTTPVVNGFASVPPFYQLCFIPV

[6] = biological target: T1, Bifunctional epoxide hydrolase 2; assay: Inhibition of human soluble epoxide hydrolase in HEK293 cells assessed as DHET production; format: cell-based
Blood = assay: Inhibition of DHET production in rat whole blood at 1 uM after 1 hr; format: functional; set-up: Activity: scale not given: the % may be the effect or the level left

Chain of Sodium channel protein type 5 subunit alpha (Q14524 whole entry): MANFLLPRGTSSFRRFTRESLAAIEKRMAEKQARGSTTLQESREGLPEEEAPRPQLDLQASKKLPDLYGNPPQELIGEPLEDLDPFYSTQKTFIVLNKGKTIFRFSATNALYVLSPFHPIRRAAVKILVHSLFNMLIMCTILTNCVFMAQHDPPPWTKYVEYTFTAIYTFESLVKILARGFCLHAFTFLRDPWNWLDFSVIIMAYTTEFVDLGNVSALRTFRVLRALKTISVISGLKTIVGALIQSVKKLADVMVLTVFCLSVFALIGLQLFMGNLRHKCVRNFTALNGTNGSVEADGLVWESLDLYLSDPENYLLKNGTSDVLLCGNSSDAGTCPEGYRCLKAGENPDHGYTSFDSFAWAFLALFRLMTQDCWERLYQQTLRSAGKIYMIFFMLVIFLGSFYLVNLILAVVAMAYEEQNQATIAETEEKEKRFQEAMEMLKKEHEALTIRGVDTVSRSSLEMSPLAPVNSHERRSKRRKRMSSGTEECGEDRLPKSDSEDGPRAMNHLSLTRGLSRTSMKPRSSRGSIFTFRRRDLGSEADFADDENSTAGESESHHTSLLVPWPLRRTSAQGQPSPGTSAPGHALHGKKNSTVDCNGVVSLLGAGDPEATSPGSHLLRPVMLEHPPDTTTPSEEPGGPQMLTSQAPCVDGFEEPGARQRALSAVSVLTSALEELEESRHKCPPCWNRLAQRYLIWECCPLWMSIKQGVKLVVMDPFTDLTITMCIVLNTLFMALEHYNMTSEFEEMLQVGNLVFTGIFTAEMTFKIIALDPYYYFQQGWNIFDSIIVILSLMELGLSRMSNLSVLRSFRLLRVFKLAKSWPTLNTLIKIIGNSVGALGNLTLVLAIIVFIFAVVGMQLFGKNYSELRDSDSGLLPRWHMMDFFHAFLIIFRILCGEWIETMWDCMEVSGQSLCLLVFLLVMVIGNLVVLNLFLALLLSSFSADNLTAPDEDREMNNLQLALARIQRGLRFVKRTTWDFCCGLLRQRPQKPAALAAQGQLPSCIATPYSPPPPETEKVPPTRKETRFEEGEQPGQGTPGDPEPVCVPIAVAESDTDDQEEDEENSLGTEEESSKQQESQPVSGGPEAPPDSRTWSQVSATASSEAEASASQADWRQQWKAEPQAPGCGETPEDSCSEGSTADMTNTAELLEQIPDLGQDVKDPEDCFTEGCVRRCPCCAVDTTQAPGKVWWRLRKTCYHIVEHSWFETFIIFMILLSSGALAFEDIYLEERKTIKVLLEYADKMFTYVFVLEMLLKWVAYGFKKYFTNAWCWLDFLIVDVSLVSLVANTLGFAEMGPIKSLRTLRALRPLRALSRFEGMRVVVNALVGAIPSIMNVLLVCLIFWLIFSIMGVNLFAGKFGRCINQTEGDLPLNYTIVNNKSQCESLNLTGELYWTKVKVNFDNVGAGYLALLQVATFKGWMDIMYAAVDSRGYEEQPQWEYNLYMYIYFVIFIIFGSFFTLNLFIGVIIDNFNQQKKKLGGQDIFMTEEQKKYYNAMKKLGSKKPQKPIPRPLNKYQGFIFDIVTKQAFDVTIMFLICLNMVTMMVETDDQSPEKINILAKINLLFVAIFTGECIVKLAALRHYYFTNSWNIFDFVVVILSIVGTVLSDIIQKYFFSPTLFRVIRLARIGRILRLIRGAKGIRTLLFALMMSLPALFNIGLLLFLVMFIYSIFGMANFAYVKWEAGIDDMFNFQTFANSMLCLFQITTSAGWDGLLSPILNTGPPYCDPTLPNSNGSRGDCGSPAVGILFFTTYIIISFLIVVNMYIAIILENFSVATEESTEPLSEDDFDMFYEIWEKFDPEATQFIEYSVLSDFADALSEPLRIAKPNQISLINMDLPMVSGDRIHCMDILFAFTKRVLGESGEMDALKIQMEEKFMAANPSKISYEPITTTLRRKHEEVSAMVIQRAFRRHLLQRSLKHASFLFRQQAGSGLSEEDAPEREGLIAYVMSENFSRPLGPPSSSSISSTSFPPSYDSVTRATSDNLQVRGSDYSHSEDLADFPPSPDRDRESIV
Chain of Cytochrome P450 3A4 (P08684 whole entry): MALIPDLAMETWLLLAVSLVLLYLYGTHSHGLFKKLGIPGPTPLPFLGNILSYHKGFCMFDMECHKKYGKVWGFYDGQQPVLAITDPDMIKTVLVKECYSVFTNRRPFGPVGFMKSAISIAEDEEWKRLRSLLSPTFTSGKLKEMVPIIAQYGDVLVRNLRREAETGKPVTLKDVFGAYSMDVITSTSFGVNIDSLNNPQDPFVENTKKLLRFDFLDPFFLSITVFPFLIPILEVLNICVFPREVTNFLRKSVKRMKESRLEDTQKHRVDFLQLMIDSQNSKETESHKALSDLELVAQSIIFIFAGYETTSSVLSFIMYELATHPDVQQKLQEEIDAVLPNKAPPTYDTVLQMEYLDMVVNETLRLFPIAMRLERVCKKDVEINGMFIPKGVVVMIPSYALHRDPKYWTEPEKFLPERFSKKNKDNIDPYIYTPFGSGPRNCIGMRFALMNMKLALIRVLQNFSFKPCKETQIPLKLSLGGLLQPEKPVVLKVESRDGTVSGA

Compound | pIC50 [1] | pIC50 (Cytochrome P450 3A4) | pIC50 [3] | pIC50 (Epoxide hydrolase 1) | pIC50 [4] | pIC50 (Cytochrome P450 2D6) | pIC50 (Cytochrome P450 2C9) | pIC50 [6] | pIC50 ([6]; hek293) | pIC50 [2] | pIC50 [5] | Activity (Blood) [%]
CS(=O)(=O)c1ccc2c(c1)CCC1(CCN(C(=O)N[C@H]3C[C@@H]3c3ccccc3)CC1)O2 | 4.55 | < 5.00 | 8.52 | 4.62 | 7.64 | < 5.00 | < 5.00 | > 9.00 | – | < 5.00 | 4.82 | –
O=C(CCc1ccccc1)N1CCC2(CCc3cc(F)ccc3O2)CC1 | 5.52 | < 5.00 | 8.15 | < 4.00 | 8.00 | > 5.00 | > 5.00 | 8.52 | – | > 5.00 | 5.22 | –
O=C1CC2(CCN(C(=O)N[C@H]3C[C@@H]3c3ccccc3)CC2)Oc2ccccc21 | < 4.52 | < 5.00 | 8.52 | – | 8.05 | < 5.00 | 5.00 | 8.52 | – | < 5.00 | 4.85 | –
O=C1CC2(CCN(C(=O)NC3CCc4ccccc43)CC2)Oc2ccccc21 (racemic) | 5.22 | < 5.00 | 7.70 | 4.55 | 7.46 | < 5.00 | > 5.00 | 7.52 | – | > 5.00 | 5.22 | –
O=C(N[C@H]1C[C@@H]1c1ccccc1)N1CCC2(CCc3cc(F)ccc3O2)CC1 (racemic) | 5.70 | < 5.00 | 8.52 | < 4.00 | 7.74 | < 5.00 | > 5.00 | > 9.00 | – | < 5.00 | 5.15 | –
O=C(c1ccc(C(F)(F)F)cc1)N1CCC2(CCc3ccccc3O2)CC1 | 5.70 | < 5.00 | 8.40 | 4.66 | 8.00 | < 5.00 | < 5.00 | > 9.00 | – | < 5.00 | 6.00 | 48
O=C1CC2(CCN(C(=O)NC3CCc4ccccc4C3)CC2)Oc2ccccc21 (racemic) | 5.05 | < 5.00 | 8.30 | 4.59 | 7.41 | < 5.00 | < 5.00 | – | – | 6.00 | 4.92 | –

The next lines start with results.

pIC50 [1] | pIC50 (Cytochrome P450 3A4) | pIC50 [3] | pIC50 (Epoxide hydrolase 1) | pIC50 [4] | pIC50 (Cytochrome P450 2D6) | pIC50 (Cytochrome P450 2C9) | pIC50 [6] | pIC50 ([6]; hek293) | Compound | pIC50 [2] | pIC50 [5] | Activity (Blood) [%]
5.30 | – | 8.10 | – | 7.55 | – | – | – | – | O=C1CC2(CCN(C(=O)NC3CCc4ccccc4CC3)CC2)Oc2ccccc21 | – | 5.30 | –
5.22 | < 5.00 | 8.40 | < 4.00 | 7.96 | < 5.00 | > 5.00 | – | – | O=C(N[C@H]1C[C@@H]1c1ccccc1)N1CCC2(CCc3ccccc3O2)CC1 (racemic) | < 5.00 | 4.82 | 20
5.40 | > 5.00 | 9.00 | < 4.00 | 8.15 | > 5.00 | > 5.00 | – | – | O=C1CC2(CCN(C(=O)N[C@H]3C[C@@H]3c3ccccc3)CC2)Oc2ccc(-c3ccncc3)cc21 (racemic) | < 5.00 | 6.70 | –
– | < 5.00 | 7.96 | < 4.00 | 7.54 | < 5.00 | < 5.00 | – | 8.52 | O=C1CC2(CCN(C(=O)N[C@H]3C[C@@H]3c3ccccc3)CC2)Oc2ccccc21 (relative stereo) | < 5.00 | 4.77 | –
4.74 | < 5.00 | 8.15 | 5.00 | 7.68 | < 5.00 | > 5.00 | – | – | CS(=O)(=O)c1ccc2c(c1)C(=O)CC1(CCN(C(=O)N[C@@H]3CC[C@@H](c4ccccc4)C3)CC1)O2 (racemic) | < 5.00 | 5.52 | –
